{"source": "patent US7189351B2", "about": "“D-tagatose as an anti-biofilm agent” (priority 2001, dated 2007)", "key": {"[1]": {"tested_on": "Fusobacterium nucleatum PK1594/Porphyromonas gingivalis PK1924", "experiment": "reversal of coaggregation, visual score", "type": "cell-based", "parameters": "key to coaggregation score without sugar: *: Coaggregations were reversed by both D-galactose and D-tagatose", "conditions": "pair PK1594/PK1924; for coaggregation score without sugar: coaggregation score 4 without sugar; for coaggregation score: water score 4, scale 0 no visible to 4 maximum coaggregation", "description": "(§1) Fifteen oral isolates, including both early colonizers (Streptococcus and Actinomyces) and late colonizers (Fusobacterium, Porphyromonas, Prevotella, Veillonella, Capnocytophaga, and Actinobacillus), were tested for their ability to coaggregate with each other, followed by testing for the reversal of coaggregation by the addition of D-tagatose. Bacterial strains used were of human gingival crevice origin. The coaggregation was examined visually by a scoring system ranging from 0 for no visible coaggregation to 4 for maximum coaggregation [Cisar J. O., Kolenbrander P. E., and McIntire F. C., “Specificity of coaggregation reactions between human oral streptococci and strains of Actinomyces viscosus or Actinomyces naeslundii”, Infect. Immun., 24:742–752. 1979]. D-Tagatose, at a concentration of less than 750 mM, completely reversed the coaggregation of 17 (60%) of 28 strong coaggregating pairs (with a coaggregation score of 2 or higher) tested. […] These D-tagatose sensitive coaggregations were D-galactose reversible as well.\n(§2) Pairs of various species of oral bacteria were tested for coaggregation, and for reversal of coaggregation when D-tagatose or D-galactose was administered."}, "[2]": {"tested_on": "Streptococcus morbillorum PK509/Veillonella atypica PK1910", "experiment": "reversal of coaggregation, visual score", "type": "cell-based", "parameters": "key to coaggregation score without sugar: *: Coaggregations were reversed by both D-galactose and D-tagatose", "conditions": "pair PK509/PK1910; for coaggregation score without sugar: coaggregation score 2 without sugar; for coaggregation score: water score 2, scale 0 no visible to 4 maximum coaggregation", "description": "as §1, §2"}, "[3]": {"tested_on": "Veillonella atypica PK1910/Streptococcus oralis SO34", "experiment": "reversal of coaggregation, visual score", "type": "cell-based", "parameters": "key to coaggregation score without sugar: *: Coaggregations were reversed by both D-galactose and D-tagatose", "conditions": "for coaggregation score: pair PK1910/SO34, water score 3, scale 0 no visible to 4 maximum coaggregation; for coaggregation score without sugar: pair SO34/PK1910, coaggregation score 3 without sugar", "description": "as §1, §2"}, "dental plaque": {"tested_on": "dental plaque", "experiment": "D-tagatose in foods to control dental plaque (Example 3)", "type": "in vivo, human", "conditions": "third monthly check-up", "from_the_text": "Forty subjects, half male, half female, ranging from 4 to 80 years in age, daily consume foodstuffs, such as cakes, cookies, pies, hard candy, hot and cold cereals, cold fruit drinks, iced tea, coffee and tea, that are sweetened with conventional sweeteners including sucrose and high fructose corn syrup (HFCS). After several monthly check-ups, these subjects are found to have high dental plaque indices, and many of them are diagnosed with plaque-related oral diseases. At this point, the test foodstuffs are switched such that D-tagatose is used as a one-for-one replacement for the table sugar and HFCS previously used. No other changes are made in the test regimen."}, "[4]": {"tested_on": "staphylococcus lesion of the leg", "experiment": "D-tagatose enhancing antibiotic activity (Example 4)", "type": "in vivo, human", "conditions": "one patient; five grams with each of three meals daily plus oral penicillin; in the course of a week", "from_the_text": "A patient with a staphylococcus lesion of the leg is placed on oral penicillin by their physician. […] The formation of plaque in the infected region protects the interior microorganisms from the antibiotic coursing through the bloodstream, and the plaque organisms develop increased resistance. The physician prescribes five grams of D-tagatose be taken with each of three meals daily, along with continued taking of the penicillin."}, "[5]": {"tested_on": "biofilm on the heart valve", "experiment": "prophylaxis against prosthetic valve endocarditis (Example 5)", "type": "in vivo, human", "conditions": "one patient; 10 grams with each of three daily meals, three days before until one week after surgery", "from_the_text": "An adult patient requires removal of their infected mitral valve and its replacement with a prosthetic valve. One of the principal hazards of such an operation is that the valve region of the heart will become infected, frequently with streptococci that form a biofilm protecting internal microorganisms from antibiotics, and also permitting such organisms to develop increasing resistance. In order to prevent the buildup of a biofilm infection, the physician places their patient on tagatose treatment for three days prior to the surgery. On each such day, the patient consumes 10 grams of D-tagatose with each of their three daily meals. The resulting D-tagatose blood level is sufficient to preclude the formation of a biofilm on the heart valve. The treatment is continued until one week after the operation and the patient is well on the road to recovery."}, "[6]": {"experiment": "prevention of stroke (Example 6)", "type": "in vivo, human", "conditions": "one patient with high blood pressure; 5 grams with each of three daily meals", "from_the_text": "A patient has gradually developed high blood pressure over the years. Their doctor places them on a blood pressure medicine when their pressure reaches 135/90 mm Hg. Despite gradual increases in dosage of the medicine, and trials of new medicines, over time their blood pressure continues to increase until reaching 145/100 mm Hg. At this point the physician fears the possibility of a stroke."}, "[7]": {"tested_on": "total bacteria and coliform", "experiment": "sterilization of food-handling machinery, wash before Clean-In-Place (Example 7)", "conditions": "200 mM in sterile water run through equipment immediately prior to CIP", "description": "A cheese-making plant processes raw milk into cheese. The equipment includes many tubes, tubules, pipes and other surfaces that come in direct contact with the milk. Between runs, standard “Clean-In-Place” (CIP) operations are performed in which acid and oxidants are coursed through the equipment to contact all surfaces and are then washed out with sterile water. However, the formation of microbial plaques protects the microorganisms in the interiors of the plaques, and some survive the CIP. To overcome this problem, an initial step is added to the CIP whereby a stream of 200 mM D-tagatose in sterile water is run through the equipment, contacting all surfaces, immediately prior to instituting the CIP. […] Accordingly, the D-tagatose wash is made part of the CIP."}, "oral bacteria": {"tested_on": "oral bacteria", "conditions": "known from literature; cited from earlier work"}}}
{"compound": "O=C(CO)[C@@H](O)[C@@H](O)[C@H](O)CO", "note": "[D-Tagatose]", "values": [{"measurement": "coaggregation score without sugar", "setting": "[1]", "result": "4*"}, {"measurement": "coaggregation score", "setting": "[1]; sugar 400 mM", "result": 0}, {"measurement": "coaggregation score without sugar", "setting": "[2]", "result": "2*"}, {"measurement": "coaggregation score", "setting": "[2]; sugar 400 mM", "result": 0}, {"measurement": "coaggregation score", "setting": "[3]; sugar 200 mM", "result": 1}, {"measurement": "coaggregation score without sugar", "setting": "[3]", "result": "3*"}, {"measurement": "plaque indices", "setting": "dental plaque; forty subjects, D-tagatose one-for-one replacement for table sugar and HFCS in foodstuffs", "result": "significantly lowered"}, {"measurement": "plaque-related oral diseases", "setting": "dental plaque; subjects who formerly exhibited disease", "result": "complete or nearly complete recovery"}, {"measurement": "outcome of staphylococcus lesion", "setting": "[4]", "result": "the lesion disappears"}, {"measurement": "infection after prosthetic valve replacement", "setting": "[5]", "result": "Infection has been avoided"}, {"measurement": "risk of stroke", "setting": "[6]", "result": "significantly reduced"}, {"measurement": "total bacteria and coliform counts in cheese-making equipment", "setting": "[7]", "result": "reducing the total bacteria and the coliform counts to acceptable regulatory levels"}]}
{"compound": "O=C[C@H](O)[C@@H](O)[C@@H](O)[C@H](O)CO", "note": "[D-Galactose]", "values": [{"measurement": "coaggregation score without sugar", "setting": "[1]", "result": "4*"}, {"measurement": "coaggregation score", "setting": "[1]; sugar 143 mM", "result": 0}, {"measurement": "coaggregation score without sugar", "setting": "[2]", "result": "2*"}, {"measurement": "coaggregation score", "setting": "[2]; sugar 143 mM", "result": 0}, {"measurement": "coaggregation score", "setting": "[3]; sugar 143 mM", "result": 1}, {"measurement": "coaggregation score without sugar", "setting": "[3]", "result": "3*"}, {"measurement": "reversal of coaggregations that would otherwise form dental plaque", "setting": "oral bacteria", "result": "reverse the coaggregations of oral bacteria"}]}
